Source: patent US10449183B2, “Methods for inhibiting preterm labor and uterine contractility disorders and preventing cervical ripening” (DIGNITY HEALTH, priority 2010, dated 2019)

How the values were obtained:
[1] = Plasma progesterone levels in pregnant rats after various treatments; format: in vivo
Procedure: FIG. 6 depicts plasma levels of progesterone following various treatments. Plasma progesterone (P4) levels in pregnant rats at day 18 and 21 days of gestation after treatment with P4 vaginal gel (15 mg bid), P4 injections (4 mg subcutaneous daily), topical P4 in fish oil (15 mg bid) and controls (Ctr) treated with vehicles. FIG. 24 depicts pharmokinetic data related to plasma serum levels after topical delivery in rats following various treatments on day 19 of gestation (single treatment only).

myometrium = conditions: P4 at concentrations equivalent to those present in the placenta and uterus; cited from earlier work
[2] = single treatment only on day 19 of gestation

With `CC(=O)[C@H]1CC[C@H]2[C@@H]3CCC4=CC(=O)CC[C@]4(C)[C@H]3CC[C@]12C` [P4, progesterone] the “plasma circulation levels of progesterone, topical compared to vaginal or subcutaneous injection” value ([1]; day 21, topical P4 in fish oil 15 mg bid vs vaginal gel 15 mg bid or 4 mg s.c. daily) was “highly effective in increasing plasma circulation levels of progesterone”, the “persistence of raised plasma levels following administration” value ([1]; single topical treatment on day 19 of gestation) was “persist for 1, 2, or more days” and the “plasma levels after topical delivery” value [1, 2] was “increase markedly”. The “plasma levels after topical delivery compared with subcutaneous injection” value [1, 2] was “even higher than subcutaneous injection” and the spontaneous myometrial contractility (myometrium) was “inhibits spontaneous myometrial contractility”.
